Measurements published in patent US20250257034A1, “INDOLE DERIVATIVES AS SEROTONERGIC AGENTS USEFUL FOR THE TREATMENT OF DISORDERS RELATED THERETO” (priority 2023, published 2025).
Read-outs that look alike come from different tables or passages of the source.

How the values were obtained:
[1] = Rat liver microsomes stability; type: in vitro ADME; conditions: rat liver microsomes
Method in brief: (§1)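 Test compound at 2 μM final was incubated at 37° C with pooled human, male rat or male mouse liver microsomes in phosphate buffer with MgCl2 and 1 mM NADPH.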

[2] = Pharmacokinetic studies in rat (i.v.); type: in vivo; conditions: dose 1.37 mg/kg (I-71, I-128), 1.33 mg/kg ((S) I-67); for concentration at 0.25 h / concentration at 1 h / AUC(0-t) / half-life: male, Sprague-Dawley, rat, plasma; for concentration at 0.25 h / concentration at 1 h: intravenous; for concentration at 0.25 h / concentration at 1 h / Plasma concentration: rat i.v.; for AUC(0-t) / half-life: iv, rat plasma, i.v.; for half-life: estimated from 2 points only; for Plasma concentration: 4 h
Method in brief: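 Male Sprague-Dawley rats (~225-350 g) received compounds intravenously via tail vein in 5% Tween-80 in saline. Saphenous blood was sampled at 0.25, 1 and 4 h and analysed by LC-MS/MS. t1/2 and AUC0-tlast came from non-compartmental analysis using the linear up/log down trapezoidal rule.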

[3] = Mouse liver microsomes stability; type: in vitro ADME; conditions: mouse liver microsomes
[4] = Human liver microsomes stability; type: in vitro ADME; conditions: human liver microsomes
Method in brief: as §1

[5] = male, pooled liver microsomes, 2 μM compound, 0.5 mg/mL
[6] = male, pooled liver microsomes, read-out: Scaled-up CLint
[7] = first individual rat (R01/R04), read-out: Plasma concentration
[8] = mean of 3 rats, read-out: Plasma concentration, Mean ± SD
[9] = second individual rat (R02/R05), read-out: Plasma concentration
[10] = third individual rat (R03/R06), read-out: Plasma concentration

CN(C)CCc1c[nH]c2ccc(OCCOC(F)F)cc12 [Compound I-128, 2-(5-(2-(Difluoromethoxy)ethoxy)-1H-indol-3-yl)-N,N-dimethylethan-1-amine]
half-life at 2 μM [1, 5]: 7.43 min
CLint scaled at 2 μM [1, 6]: 334 mL/min/kg
microsomal CLint at 2 μM ([1]; male, rat, pooled liver microsomes, 2 μM compound, 0.5 mg/mL, read-out: CLint (μL/min/mg protein)): 187 µL/min/mg
Predicted hepatic CL [1]: 47.38 mL/min/kg
Remaining Percentage (%) ([1]; With Cofactors, 0 min): 100.00%
Remaining Percentage (%) ([1]; With Cofactors, 30 min): 6.09%
Remaining Percentage (%) ([1]; With Cofactors, 60 min): 0.56%
Remaining Percentage (%) ([1]; Without Cofactors, 0 min): 100.00%
Remaining Percentage (%) ([1]; Without Cofactors, 30 min): 70.92%
Remaining Percentage (%) ([1]; Without Cofactors, 60 min): 52.18%
concentration at 0.25 h [2, 7]: 146 ng/mL
concentration at 0.25 h [2, 8]: 138 ± 9.07 ng/mL
concentration at 0.25 h [2, 9]: 128 ng/mL
concentration at 0.25 h [2, 10]: 139 ng/mL
concentration at 1 h [2, 7]: 19 ng/mL
concentration at 1 h [2, 8]: 15.2 ± 3.32 ng/mL
concentration at 1 h [2, 9]: 13.1 ng/mL
concentration at 1 h [2, 10]: 13.4 ng/mL
AUC(0-t) ([2]; first individual rat (R01/R04), read-out: AUC0-tlast): 99 ng·h/mL
half-life ([2]; first individual rat (R01/R04), read-out: Apparent t1/2 (converted)): 15.3 min
AUC(0-t) ([2]; mean of 3 rats, read-out: AUC0-tlast, Mean ± SD): 92.5 ± 6.63 ng·h/mL
half-life ([2]; mean of 3 rats, read-out: Apparent t1/2, Mean ± SD (converted)): 14.1 ± 1.04 min
AUC(0-t) ([2]; second individual rat (R02/R05), read-out: AUC0-tlast): 85.7 ng·h/mL
half-life ([2]; second individual rat (R02/R05), read-out: Apparent t1/2 (converted)): 13.7 min
AUC(0-t) ([2]; third individual rat (R03/R06), read-out: AUC0-tlast): 92.9 ng·h/mL
half-life ([2]; third individual rat (R03/R06), read-out: Apparent t1/2 (converted)): 13.3 min
Plasma concentration ([2]; first individual rat (R01/R04)): No Peak
Plasma concentration ([2]; second individual rat (R02/R05)): No Peak
Plasma concentration ([2]; third individual rat (R03/R06)): No Peak
microsomal CLint at 2 μM ([3]; male, mouse, pooled liver microsomes, 2 μM compound, 0.5 mg/mL, read-out: CLint (μL/min/mg protein)): 66.7 µL/min/mg
half-life at 2 μM [3, 5]: 20.8 min
CLint scaled at 2 μM [3, 6]: 292 mL/min/kg
Predicted hepatic CL [3]: 68.78 mL/min/kg
Remaining Percentage (%) ([3]; With Cofactors, 0 min): 100.00%
Remaining Percentage (%) ([3]; With Cofactors, 30 min): 37.09%
Remaining Percentage (%) ([3]; With Cofactors, 60 min): 13.52%
Remaining Percentage (%) ([3]; Without Cofactors, 0 min): 100.00%
Remaining Percentage (%) ([3]; Without Cofactors, 30 min): 89.52%
Remaining Percentage (%) ([3]; Without Cofactors, 60 min): 87.90%
Predicted hepatic CL [4]: 16.28 mL/min/kg
half-life at 2 μM ([4]; 2 μM compound, 0.5 mg/mL): 22.8 min
microsomal CLint at 2 μM ([4]; 2 μM compound, 0.5 mg/mL, read-out: CLint (μL/min/mg protein)): 60.8 µL/min/mg
Remaining Percentage (%) ([4]; With Cofactors, 0 min): 100.00%
Remaining Percentage (%) ([4]; With Cofactors, 30 min): 41.35%
Remaining Percentage (%) ([4]; With Cofactors, 60 min): 16.15%
Remaining Percentage (%) ([4]; Without Cofactors, 0 min): 100.00%
Remaining Percentage (%) ([4]; Without Cofactors, 30 min): 39.57%
Remaining Percentage (%) ([4]; Without Cofactors, 60 min): 16.12%
CLint scaled at 2 μM ([4]; read-out: Scaled-up CLint): 76.2 mL/min/kg
